Tests used:
Assay type in all cases: in vivo
[1] = test system: upland rice (Oryza sp., var.Tebonnet, RICE); assay: Pre-emerge greenhouse test, crop damage rating; details: 14 days after application, rating scale 0-100
Procedure, shortened: (§1)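 Seeds sown in sandy loam one day before track-sprayer application of acetone solutions at 125–1000 g ai/ha (187 l/ha), then surface-watered to incorporate and bottom-watered. Injury scored visually at 14 days on a 0–100 scale (0 no damage, 100 complete death).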

[2] = test system: field corn (Zea mays L., var. Dekalb 535, CORN); assay: Pre-emerge greenhouse test, crop damage rating; details: 14 days after application, rating scale 0-100
Procedure, shortened: as §1

[3] = test system: soybean (Glycine max L., var. Pella 86, SOY); assay: Pre-emerge greenhouse test, crop damage rating; details: 14 days after application, rating scale 0-100
Procedure, shortened: as §1

[4] = test system: green foxtail (Setaria viridis, SETVI); assay: Pre-emerge greenhouse herbicide test, phytotoxicity rating; details: 14 days after application, rating scale 0-100
Procedure, shortened: as §1

[5] = test system: lambsquarters (Chenopodium album, CHEAL); assay: as above; details: 14 days after application, rating scale 0-100
Procedure, shortened: as §1

[6] = test system: redroot pigweed (Amaranthus retroflexus, AMARE); assay: as above; details: 14 days after application, rating scale 0-100
Procedure, shortened: as §1

[7] = test system: sicklepod (Cassia obtusifolia, CASOB); assay: as above; details: 14 days after application, rating scale 0-100
Procedure, shortened: as §1

[8] = test system: velvetleaf (Abutilon theophrasti, ABUTH); assay: as above; details: 14 days after application, rating scale 0-100
Procedure, shortened: as §1

[9] = test system: large crabgrass (Digitaria sanguinalis, DIGSA); assay: as above; details: 14 days after application, rating scale 0-100
Procedure, shortened: as §1

[10] = test system: barnyardgrass (Echinochloa crusgalli, ECHCG); assay: as above; details: 14 days after application, rating scale 0-100
Procedure, shortened: as §1

[11] = test system: ivyleaf morningglory (Ipomoea hederacea, IPOHE); assay: as above; details: 14 days after application, rating scale 0-100
Procedure, shortened: as §1

[12] = test system: Johnsongrass (Sorghum halepense, SORHA); assay: as above; details: 14 days after application, rating scale 0-100
Procedure, shortened: as §1

[13] = test system: common ragweed (Ambrosia artemisiifolia L., AMBEL); assay: as above; details: 14 days after application, rating scale 0-100
Procedure, shortened: as §1

[14] = test system: common ragweed (Ambrosia artemisiifolia L., AMBEL); assay: Post-emerge greenhouse herbicide test, phytotoxicity rating; details: 14 days after application
Procedure, shortened: (§2)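 Plants at the 2-3 leaf stage, sown 8-21 days earlier, were track-sprayed post-emergence with compound in acetone plus 0.25% v/v non-ionic surfactant at 63-1000 g ai/ha (187 l/ha). Damage was rated at 14 days on a 0-100 scale (0 none, 100 all plants dead), for both crop injury and weed control.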

[15] = test system: green foxtail (Setaria viridis, SETVI); assay: as above; details: 14 days after application
Procedure, shortened: as §2

[16] = test system: lambsquarters (Chenopodium album, CHEAL); assay: as above; details: 14 days after application
Procedure, shortened: as §2

[17] = test system: redroot pigweed (Amaranthus retroflexus, AMARE); assay: as above; details: 14 days after application
Procedure, shortened: as §2

[18] = test system: velvetleaf (Abutilon theophrasti, ABUTH); assay: as above; details: 14 days after application
Procedure, shortened: as §2

[19] = test system: large crabgrass (Digitaria sanguinalis, DIGSA); assay: as above; details: 14 days after application
Procedure, shortened: as §2

[20] = test system: barnyardgrass (Echinochloa crusgalli, ECHCG); assay: as above; details: 14 days after application
Procedure, shortened: as §2

[21] = test system: ivyleaf morningglory (Ipomoea hederacea, IPOHE); assay: as above; details: 14 days after application
Procedure, shortened: as §2

[22] = test system: Johnsongrass (Sorghum halepense, SORHA); assay: as above; details: 14 days after application
Procedure, shortened: as §2

[23] = test system: upland rice (Oryza sp., var.Tebonnet, RICE); assay: Post-emerge greenhouse test, crop damage rating; details: 14 days after application
Procedure, shortened: as §2

[24] = test system: field corn (Zea mays L., var. Dekalb 535, CORN); assay: Post-emerge greenhouse test, crop damage rating; details: 14 days after application
Procedure, shortened: as §2

[25] = test system: soybean (Glycine max L., var. Pella 86, SOY); assay: Post-emerge greenhouse test, crop damage rating; details: 14 days after application
Procedure, shortened: as §2

SMILES: N#Cc1cc([N+](=O)[O-])ccc1Oc1cc(-n2c(=O)n3n(c2=S)CCCC3)c(F)cc1Cl [Compound 8-12]
- crop damage rating RICE ([1]; 125 g ai/ha): 20
- crop damage rating RICE ([1]; 500 g ai/ha): 50
- crop damage rating CORN ([2]; 125 g ai/ha): 0
- crop damage rating CORN ([2]; 500 g ai/ha): 0
- crop damage rating SOY ([3]; 125 g ai/ha): 0
- crop damage rating SOY ([3]; 500 g ai/ha): 0
- phytotoxicity rating SETVI ([4]; 125 g ai/ha): 0
- phytotoxicity rating SETVI ([4]; 500 g ai/ha): 70
- phytotoxicity rating CHEAL ([5]; 125 g ai/ha): 100
- phytotoxicity rating CHEAL ([5]; 500 g ai/ha): 100
- phytotoxicity rating AMARE ([6]; 125 g ai/ha): 90
- phytotoxicity rating AMARE ([6]; 500 g ai/ha): 100
- phytotoxicity rating CASOB ([7]; 125 g ai/ha): 0
- phytotoxicity rating CASOB ([7]; 500 g ai/ha): 0
- phytotoxicity rating ABUTH ([8]; 125 g ai/ha): 95
- phytotoxicity rating ABUTH ([8]; 500 g ai/ha): 100
- phytotoxicity rating DIGSA ([9]; 125 g ai/ha): 0
- phytotoxicity rating DIGSA ([9]; 500 g ai/ha): 50
- phytotoxicity rating ECHCG ([10]; 125 g ai/ha): 0
- phytotoxicity rating ECHCG ([10]; 500 g ai/ha): 0
- phytotoxicity rating IPOHE ([11]; 125 g ai/ha): 0
- phytotoxicity rating IPOHE ([11]; 500 g ai/ha): 70
- phytotoxicity rating SORHA ([12]; 125 g ai/ha): 0
- phytotoxicity rating SORHA ([12]; 500 g ai/ha): 40
- phytotoxicity rating AMBEL ([13]; 125 g ai/ha): 90
- phytotoxicity rating AMBEL ([13]; 500 g ai/ha): 90
- AMBEL phytotoxicity rating (0-100) ([14]; 63 g al/ha): 50
- AMBEL phytotoxicity rating (0-100) ([14]; 500 g al/ha): 70
- SETVI phytotoxicity rating (0-100) ([15]; 63 g al/ha): 0
- SETVI phytotoxicity rating (0-100) ([15]; 500 g al/ha): 30
- CHEAL phytotoxicity rating (0-100) ([16]; 63 g al/ha): 80
- CHEAL phytotoxicity rating (0-100) ([16]; 500 g al/ha): 70
- AMARE phytotoxicity rating (0-100) ([17]; 63 g al/ha): 70
- AMARE phytotoxicity rating (0-100) ([17]; 500 g al/ha): 100
- ABUTH phytotoxicity rating (0-100) ([18]; 63 g al/ha): 100
- ABUTH phytotoxicity rating (0-100) ([18]; 500 g al/ha): 100
- DIGSA phytotoxicity rating (0-100) ([19]; 63 g al/ha): 0
- DIGSA phytotoxicity rating (0-100) ([19]; 500 g al/ha): 0
- ECHCG phytotoxicity rating (0-100) ([20]; 63 g al/ha): 0
- ECHCG phytotoxicity rating (0-100) ([20]; 500 g al/ha): 40
- IPOHE phytotoxicity rating (0-100) ([21]; 63 g al/ha): 80
- IPOHE phytotoxicity rating (0-100) ([21]; 500 g al/ha): 70
- SORHA phytotoxicity rating (0-100) ([22]; 63 g al/ha): 0
- SORHA phytotoxicity rating (0-100) ([22]; 500 g al/ha): 50
- RICE crop damage rating (0-100) ([23]; 63 g al/ha): 0
- RICE crop damage rating (0-100) ([23]; 500 g al/ha): 30
- CORN crop damage rating (0-100) ([24]; 63 g al/ha): 0
- CORN crop damage rating (0-100) ([24]; 500 g al/ha): 0
- SOY crop damage rating (0-100) ([25]; 63 g al/ha): 50
- SOY crop damage rating (0-100) ([25]; 500 g al/ha): 60

Source: patent publication US6479435B1, “Diaryl ethers and processes for their preparation and herbicidal and desiccant compositions containing them” (ISK Americas Incorporated, priority 1997, dated 2002)
